The values below are quoted from earlier work in patent US20220241230A1, “DICLOFENAC SACHET COMPOSITION” (Patrin Pharma, Inc., priority 2021, published 2022).

The conditions of data set [1]: commercially available sugar coated tablets.
The conditions of data set [2]: 100 mg and 50 mg tablets, versus placebo.
Where [3] appears, read: 50 mg and 100 mg sugar coated tablets.

For the compound `O=C(O)Cc1ccccc1Nc1c(Cl)cccc1Cl` [diclofenac potassium, Diclofenac potassium], the “incidence of headache recurrence within 48 hours of treatment” value (50 mg and 100 mg immediate release tablets, versus placebo, statistical significance not reported) is on record as “higher incidence of headache recurrence than patients treated with placebo”. Further, under setting [3], the “effectiveness against phonophobia two hours after treatment” value was “only the 100 mg dose was effective”, the “effectiveness against photophobia eight hours after treatment” value is on record as “both doses were effective”, the “effectiveness against photophobia two hours after treatment” value is “neither dose was effective” and the “relief of migraine pain within two hours of treatment” value was “ability of both doses to relieve migraine pain”. For the same compound, the “effectiveness against photophobia eight hours after treatment, 50 mg dose” value (50 mg sugar coated tablets) is recorded as “effective”. Further, the terminal half-life entry in data set [1] was “about 1.9 hours”.
For the compound `O=C(O)Cc1ccccc1Nc1c(Cl)cccc1Cl` [diclofenac, [(2,6-dichloro-anilino)-2-phenyl]-2-acetic acid], in data set [2], the “effectiveness against migraine pain within two hours of treatment” value is reported as “both strengths were effective”; the “effectiveness against phonophobia and photophobia within two hours” value was “only the 100 mg strength was effective”.
